# Experimental data: paper PMC10030462, “SB2301-mediated perturbation of membrane composition in lipid droplets induces lipophagy and lipid droplets ubiquitination” (Communications Biology, 2023)
# pKd: −log10 of the molar value.
# How the values were obtained:
# [1] = tested on: HeLa human cervical cancer cells; experiment: cells; design: cellular lipid droplet reduction, fluorescence imaging high-content phenotypic screen; conditions: 24 h, lipid droplet reduction in HeLa; for IC50: read-out: LD reduction (IC50, uM) Potency
# Method: The LD reduction activity of these analogues (1–20) was initially evaluated in human cervical cancer HeLa cells at a fixed concentration (10 μM each) to determine the efficacy of LD reduction. In addition, potency was determined by measuring the half-maximal inhibitory concentration (IC50) (Supplementary Table 1). Compounds with high cytotoxicity and low water solubility were excluded during high-content phenotypic screening. […] We also observed a similar pattern of LD reduction in human hepatocellular carcinoma HepG2 cells (Supplementary Fig. 2A) and mouse hepatocyte AML12 cells (Supplementary Fig. 2B). Consistent with the reduction in cellular LDs, the cellular triglyceride (TG) content was reduced in a dose-dependent manner (Fig. 1E). Based on these findings, we conducted a further study to determine the mechanism by which SB2301 reduced cellular LDs.
# [2] = molecular target: T1, PCYT2 (ethanolamine-phosphate cytidylyltransferase 2) (Homo sapiens, UniProt Q99447); experiment: SPR (Biacore T100, immobilized human PCYT2, […] fit); also CETSA and TS-FITGE in HepG2 cells; format: binding
# T1 construct: Human PCYT2 (Prospec, enz-221)
# T1 sequence (Q99447 whole entry): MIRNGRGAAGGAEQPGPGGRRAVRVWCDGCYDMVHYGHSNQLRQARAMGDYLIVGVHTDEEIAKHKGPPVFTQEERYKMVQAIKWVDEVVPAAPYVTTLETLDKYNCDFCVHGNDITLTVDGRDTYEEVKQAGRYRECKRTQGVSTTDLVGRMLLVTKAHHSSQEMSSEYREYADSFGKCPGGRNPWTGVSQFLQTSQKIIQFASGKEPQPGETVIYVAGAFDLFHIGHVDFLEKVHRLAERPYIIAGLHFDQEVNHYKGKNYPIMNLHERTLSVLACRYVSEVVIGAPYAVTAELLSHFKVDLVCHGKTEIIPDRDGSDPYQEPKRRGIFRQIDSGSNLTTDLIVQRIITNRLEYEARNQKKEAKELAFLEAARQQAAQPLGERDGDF
SMILES,IC50 [1],pKd [2],inhibition at 10 µM [1]
"Oc1cccc(-c2ccc3nc(-c4cn(-c5ccc(C(F)(F)F)cc5)nn4)ccc3c2)c1 [compound 6, 6]",32 µM,,35.9%
"Oc1cccc(-c2ccc3nc(-c4cn(-c5ccccc5C(F)(F)F)nn4)ccc3c2)c1 [compound 4, SB2301]",4.4 µM,~4.59,64.5%
"N#Cc1cccc(-n2cc(-c3ccc4cc(-c5cccc(O)c5)ccc4n3)nn2)c1 [compound 8, 8]",27.6 µM,,-7.1%
"Oc1cccc(-c2ccc3nc(-c4cn(-c5ccccc5O)nn4)ccc3c2)c1 [compound 13, 13]",11.6 µM,,12.7%
"Oc1cccc(-c2ccc3nc(-c4cn(-c5cccc(F)c5)nn4)ccc3c2)c1 [compound 11, 11]",20.6 µM,,19.2%
"Oc1cccc(-c2ccc3nc(-c4cn(-c5ccccc5Cl)nn4)ccc3c2)c1 [compound 10, 10]",10.1 µM,,2.7%
"COc1ccc(-n2cc(-c3ccc4cc(-c5cccc(O)c5)ccc4n3)nn2)cc1 [compound 3, 3]",3.7 µM,,19%

# Further lines, with some results ahead:
IC50 [1],pKd [2],SMILES,inhibition at 10 µM [1]
4.7 µM,,"Oc1cccc(-c2ccc3nc(-c4cn(-c5ccc(Br)cc5)nn4)ccc3c2)c1 [compound 12, 12]",36.8%
6.7 µM,,"COc1ccccc1-n1cc(-c2ccc3cc(-c4cccc(O)c4)ccc3n2)nn1 [compound 1, 1]",50%
7.9 µM,,"O=[N+]([O-])c1ccccc1-n1cc(-c2ccc3cc(-c4cccc(O)c4)ccc3n2)nn1 [compound 14, 14]",48.5%
14.8 µM,,"N#Cc1ccccc1-n1cc(-c2ccc3cc(-c4cccc(O)c4)ccc3n2)nn1 [compound 7, 7]",30.4%
